The NIST ThermoML archive (doi:10.1016/j.tca.2012.02.017)

Columns and labels:
[1] = molar heat capacity at constant pressure; xn = mol fraction of the nth substance listed; details: 101 kPa, Liquid, Large sample (1 g) DSC
[2] = molar heat capacity at constant pressure; details: 101.33 kPa, Liquid, Large sample (1 g) DSC

CC(O)COC(C)COC(C)CO (stereo unspecified) [2-[2-(2-hydroxypropoxy)propoxy]-1-propanol] + O
molar heat capacity at constant pressure [J/K/mol], [1]
Details	x1 = 0.2	x1 = 0.4	x1 = 0.5	x1 = 0.6	x1 = 0.8
303.15 K	158.9	234.7	271.9	309	381.4
308.15 K	160.5	237.2	275.1	312.1	385.8
313.15 K	162.2	240	278.1	315.6	389.6
318.15 K	163.4	241.6	280.9	317.9	392.4
323.15 K	164.9	244.5	283.2	321.6	396.3
328.15 K	166.2	246.6	286.1	324.7	400.5
333.15 K	167.8	249.9	289.3	328.3	404.1
338.15 K	169.1	252.2	292.5	331.3	407.6
343.15 K	170.7	254.8	295.5	334.9	411.8
348.15 K	172.2	257.4	298.5	338.2	416
353.15 K	173.9	260.2	302.1	342.1	420.3

OCCCOCCCO [4-oxa-1,7-heptanediol]
[2]
Details	molar heat capacity at constant pressure [J/K/mol]
303.15 K	329
313.15 K	335.9
323.15 K	342
333.15 K	348.5
343.15 K	355.1
353.15 K	362.6
